{
  "source": "ChEMBL document CHEMBL5230133",
  "about": "“Selective Estrogen Receptor Degraders (SERDs): A Promising Strategy for Estrogen Receptor Positive Endocrine-Resistant Breast Cancer” (J Med Chem, 2020)",
  "key": {"[1]": {"tested_on": "MCF7", "experiment": "Antiproliferative activity against human MCF7 cells", "type": "functional, cell-based"}, "[2]": {"experiment": "Inhibition of ESR1 Y537S mutant LBD (unknown origin) transfected in SK-BR-3 cells measured after 22 hrs by luciferase assay", "type": "cell-based", "settings": "Homo sapiens, SK-BR-3, 22 h"}, "[3]": {"tested_on": "Rattus norvegicus", "experiment": "Anti-uterotrophic activity in rat at 10 mg/kg, sc administered once daily for 3 days relative to control", "type": "functional", "settings": "time 3 day"}, "[4]": {"tested_on": "MCF7", "experiment": "Antiproliferative activity against human MCF7 cells assessed as reduction in cell proliferation", "type": "functional, cell-based"}, "[5]": {"biological_target": "T1, Estrogen receptor (Homo sapiens, UniProt P03372)", "T1 sequence (P03372 whole entry)": "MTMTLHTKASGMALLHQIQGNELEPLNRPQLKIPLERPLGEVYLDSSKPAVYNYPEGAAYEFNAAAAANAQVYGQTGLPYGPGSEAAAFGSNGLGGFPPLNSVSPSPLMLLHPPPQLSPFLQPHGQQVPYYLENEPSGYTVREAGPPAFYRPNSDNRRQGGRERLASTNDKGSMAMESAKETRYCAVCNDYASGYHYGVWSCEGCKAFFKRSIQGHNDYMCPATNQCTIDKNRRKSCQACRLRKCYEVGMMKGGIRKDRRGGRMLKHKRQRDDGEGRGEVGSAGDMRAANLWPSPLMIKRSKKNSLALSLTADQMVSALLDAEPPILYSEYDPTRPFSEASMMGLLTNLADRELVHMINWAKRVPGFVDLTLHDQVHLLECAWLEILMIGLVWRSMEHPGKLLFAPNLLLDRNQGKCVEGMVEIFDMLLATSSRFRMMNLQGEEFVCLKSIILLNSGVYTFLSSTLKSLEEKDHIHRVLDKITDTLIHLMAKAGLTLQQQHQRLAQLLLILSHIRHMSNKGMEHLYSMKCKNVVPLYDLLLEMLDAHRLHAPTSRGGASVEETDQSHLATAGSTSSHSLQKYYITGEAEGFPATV", "experiment": "Inhibition of ER (unknown origin) by luciferase reporter assay"}, "[6]": {"experiment": "Downregulation of ER in human MCF7 cells assessed as […] measured after 2 days EIA assay", "type": "functional, cell-based", "settings": "MCF7, 48 h"}},
  "data": [
    {"smiles": "CC1=C(c2ccc(O)cc2)[C@H](c2ccc(OCCN3CC[C@@H](C)C3)cc2)Oc2cc(O)ccc21", "values": [
      {"measurement": "IC50", "setting": "[1]", "value": 9.2, "unit": "nM"},
      {"measurement": "IC50", "setting": "[2]", "value": 8, "unit": "nM"}
    ]},
    {"smiles": "CN(CCCCCCC(F)(F)C(F)(F)C(F)(F)C(F)(F)F)CCCCC[C@@H]1Cc2cc(O)ccc2C2C1C1CC[C@H](O)[C@@]1(C)C[C@@H]2F", "note": "(some centres not stated)", "values": [
      {"measurement": "IC50", "setting": "[1]", "value": 1.9, "unit": "nM"}
    ]},
    {"smiles": "C[C@]12C[C@H](c3ccc(OCCCCCS(=O)(=O)CCCC(F)(F)C(F)(F)F)cc3)C3c4ccc(O)cc4CCC3C1CC[C@@H]2O", "note": "(some centres not stated)", "values": [
      {"measurement": "IC50", "setting": "[1]", "value": 0.13, "unit": "nM"}
    ]},
    {"smiles": "CCCCN(C)C(=O)CCCCCCCCCC[C@@H]1Cc2cc(O)ccc2C2CC[C@@]3(C)C(CC[C@@H]3O)C21", "note": "(some centres not stated)", "values": [
      {"measurement": "Activity", "setting": "[3]", "value": 105, "unit": "%"}
    ]},
    {"smiles": "C[C@]12CC[C@@H]3c4ccc(O)cc4C[C@@H](CCCCCCCCC[S+]([O-])CCCC(F)(F)C(F)(F)F)[C@H]3[C@@H]1CC[C@@H]2O", "note": "(some centres not stated) [FULVESTRANT]", "values": [
      {"measurement": "IC50", "setting": "[1]", "value": 0.35, "unit": "nM"},
      {"measurement": "IC50", "setting": "[2]", "value": 22, "unit": "nM"}
    ]},
    {"smiles": "CCCCNC(=O)CCCCCCCCCC[C@@H]1Cc2cc(O)ccc2C2CC[C@@]3(C)C(CC[C@@H]3O)C21", "note": "(some centres not stated)", "values": [
      {"measurement": "Activity", "setting": "[3]", "value": 100, "unit": "%"}
    ]},
    {"smiles": "CCNCCc1ccc(CN(CC)c2cc(OC)ccc2[C@@H]2CCc3cc(O)ccc3C2)cc1", "note": "[ELACESTRANT]", "values": [
      {"measurement": "IC50", "setting": "[4]", "value": 4.2, "unit": "nM"}
    ]},
    {"smiles": "CN(CCCCC[C@@H]1Cc2cc(O)ccc2C2C1C1CC[C@H](O)[C@@]1(C)C[C@@H]2F)CCCSCCCC(F)(F)C(F)(F)F", "note": "(some centres not stated)", "values": [
      {"measurement": "IC50", "setting": "[1]", "value": 2.4, "unit": "nM"}
    ]},
    {"smiles": "C[C@]12CCC3c4ccc(O)cc4C[C@@H](CCCCCCCC[C@H](CCCC(F)(F)C(F)(F)C(F)(F)C(F)(F)F)C(=O)O)C3C1CCC2=O", "note": "(some centres not stated)", "values": [
      {"measurement": "IC50", "setting": "[5]", "value": 49.8, "unit": "nM"},
      {"measurement": "IC50", "setting": "[6]", "value": 24, "unit": "nM"}
    ]}
  ]
}
